# Laboratory results: patent US20170122958A1, “Enzymes Functional Probes” (University of Dundee, priority 2013, published 2017)
# Several values for one entry are separate records, joined by “and”; a condition that tells them apart may be missing. Equal entries are not always repeated.
# Experiments:
# Format in all cases: binding
# Brd2(1) [1] = molecular target: T1, Brd2(1) (Homo sapiens, UniProt P25440); assay: DSF thermal shift; details: wild type
# T1 construct: Plasmids of the eight single BET bromodomain constructs Brd2(1), Brd2(2), Brd3(1), Brd3(2); His6 (N); made in house; host or cells: E. coli BL21(DE3)
# Brd2(2) [2] = molecular target: T2, Brd2(2) (Homo sapiens, UniProt P25440); assay: DSF thermal shift; details: wild type
# T2 construct: Plasmids of the eight single BET bromodomain constructs Brd2(1), Brd2(2), Brd3(1), Brd3(2); His6 (N); made in house; host or cells: E. coli BL21(DE3)
# Brd3(1) = molecular target: T3, Brd3(1) (Homo sapiens, UniProt Q15059); assay: DSF thermal shift; details: wild type
# T3 construct: Plasmids of the eight single BET bromodomain constructs Brd2(1), Brd2(2), Brd3(1), Brd3(2); His6 (N); made in house; host or cells: E. coli BL21(DE3)
# Brd3(2) = molecular target: T4, Brd3(2) (Homo sapiens, UniProt Q15059); assay: DSF thermal shift; details: wild type
# T4 construct: Plasmids of the eight single BET bromodomain constructs Brd2(1), Brd2(2), Brd3(1), Brd3(2), Brd4(1), Brd4(2), Brdt(1) and Brdt(2); His6 (N); made in house; host or cells: E. coli BL21(DE3)
# Brdt(1) = molecular target: T5, Brdt(1) (Homo sapiens, UniProt Q58F21); assay: DSF thermal shift; details: wild type
# T5 construct: Plasmids of the eight single BET bromodomain constructs Brd2(1), Brd2(2), Brd3(1), Brd3(2), Brd4(1), Brd4(2), Brdt(1) and Brdt(2); His6 (N); made in house; host or cells: E. coli BL21(DE3)
# Brdt(2) = molecular target: T6, Brdt(2) (Homo sapiens, UniProt Q58F21); assay: DSF thermal shift; details: wild type
# T6 construct: Plasmids of the eight single BET bromodomain constructs Brd2(1), Brd2(2), Brd3(1), Brd3(2), Brd4(1), Brd4(2), Brdt(1) and Brdt(2); His6 (N); made in house; host or cells: E. coli BL21(DE3)
# brd3(2)L344A = molecular target: T7, brd3(2)L344A (Homo sapiens, UniProt Q15059, L345A); assay: DSF thermal shift; details: mutant
# T7 construct: Plasmids of the eight single BET bromodomain constructs Brd2(1), Brd2(2), Brd3(1), Brd3(2), Brd4(1), Brd4(2), Brdt(1) and Brdt(2); His6 (N); made in house; host or cells: E. coli BL21(DE3)
# brdt(2)L306A = molecular target: T8, brdt(2)L306A (Homo sapiens, UniProt Q58F21, L306A); assay: DSF thermal shift; details: mutant
# T8 construct: Plasmids of the eight single BET bromodomain constructs Brd2(1), Brd2(2), Brd3(1), Brd3(2), Brd4(1), Brd4(2), Brdt(1) and Brdt(2); His6 (N); made in house; host or cells: E. coli BL21(DE3)
# Brd3(1)* (L070A) = molecular target: T9, Brd3(1)* (L070A) (Homo sapiens, UniProt Q15059, L70A); assay: DSF thermal shift; details: mutant
# T9 construct: Plasmids of the eight single BET bromodomain constructs Brd2(1), Brd2(2), Brd3(1), Brd3(2); His6 (N); made in house; host or cells: E. coli BL21(DE3)
# Brd2(1) [3] = molecular target: T1, Brd2(1); assay: ITC reverse titration of protein into compound; details: for ΔH Brd2(1): ITC 25° C.
# Method: (§1) ITC experiments were carried out on a ITC200 instrument from MicroCal™ Experiments were conducted at 3 different temperatures 15° C., 25° C. and 30° C., while stirring at 1000 rpm. Buffers of proteins, peptide and compounds were matched to 20 mM HEPES pH 7.5 at 25° C. and 100 mM NaCl. Frozen protein was buffer exchanged as described for the DSF experiments. Each titration comprised 1 initial injection of 0.4 μl lasting 0.8 s, followed by 19 injections of 2 μl lasting 4 s each at 2 min intervals. The initial injection was discarded during data analysis. Standard and reverse titrations were conducted depending on the binding partners.
# (§2) Reverse titrations were conducted to test the binding of the known ligands and the novel chemical probes to the wild types and the mutants. Experiments were carried out either at 25° C. or 30° C. […] In cases where the compound was solubilized in dimethyl sulfoxide, DMSO concentration was adjusted to 1% both in the syringe and in the cell.
# (§3) All the data was fitted to a single binding site model using the Microcal LLC ITC200 Origin software provided by the manufacturer to yield enthalpies of binding (ΔH) and binding constants (Kas). Further thermodynamic parameters were calculated from these values (changes in entropy ΔS, changes in free energy AG and dissociation constants (Kds)).
# Brd2(2) [4] = molecular target: T2, Brd2(2); assay: ITC reverse titration of protein into compound; details: ITC 25° C.; for Kd: Kd Brd2(2)
# Method: as §1, §2, §3
# Brd2(1)*(Leu110-Ala) = Brd2(1)*(Leu110-Ala) (Homo sapiens, UniProt P25440, L110A); assay: ITC reverse titration of protein into compound; set-up: Plasmids of the eight single BET bromodomain constructs Brd2(1), Brd2(2), Brd3(1), Brd3(2), Brd4(1), Brd4(2), Brdt(1) and Brdt(2); His6 (N); made in house; host or cells: E. coli BL21(DE3); details: for ΔH Brd2(1)* (Leu110-Ala): ITC 25° C.; for Selectivity factor Kd WT/Kd Leu/Ala: 30° C.
# Method: as §1, §2, §3
# Brd2(2)*(Leu383-Ala) = Brd2(2)*(Leu383-Ala) (Homo sapiens, UniProt P25440, L383A); assay: ITC reverse titration of protein into compound; set-up: Plasmids of the eight single BET bromodomain constructs Brd2(1), Brd2(2), Brd3(1), Brd3(2), Brd4(1), Brd4(2), Brdt(1) and Brdt(2); His6 (N); made in house; host or cells: E. coli BL21(DE3); details: for ΔH Brd2(2)* (Leu383-Ala) / Kd: ITC 25° C.; for Kd: Kd Brd2(2)* (Leu383-Ala); for Selectivity factor Kd WT/Kd Leu/Ala: 30° C.
# Method: as §1, §2, §3
# T2 sequence (P25440 344-453 limits assumed): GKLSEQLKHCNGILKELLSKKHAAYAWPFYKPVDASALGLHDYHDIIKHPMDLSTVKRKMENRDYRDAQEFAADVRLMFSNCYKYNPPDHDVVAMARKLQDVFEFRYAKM
# Chain of Brd2(1)*(Leu110-Ala) (P25440 74-180 L110A limits assumed): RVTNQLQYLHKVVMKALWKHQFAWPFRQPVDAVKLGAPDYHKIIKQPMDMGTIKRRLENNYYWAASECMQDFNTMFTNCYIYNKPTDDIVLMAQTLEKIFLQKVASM
# Chain of Brd2(2)*(Leu383-Ala) (P25440 344-453 L383A limits assumed): as the sequence (P25440 344-453 limits assumed) above, with L40A counted along it
# T1 sequence (P25440 74-180 limits assumed): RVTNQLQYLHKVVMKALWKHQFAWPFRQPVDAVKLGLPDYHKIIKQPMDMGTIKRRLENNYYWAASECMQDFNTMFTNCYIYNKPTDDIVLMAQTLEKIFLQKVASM
# T9 sequence (Q15059 34-140 L70A limits assumed): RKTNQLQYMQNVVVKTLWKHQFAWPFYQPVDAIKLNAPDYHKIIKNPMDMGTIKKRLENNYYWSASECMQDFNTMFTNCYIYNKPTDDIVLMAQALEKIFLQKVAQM
# T4 sequence (Q15059 306-415 limits assumed): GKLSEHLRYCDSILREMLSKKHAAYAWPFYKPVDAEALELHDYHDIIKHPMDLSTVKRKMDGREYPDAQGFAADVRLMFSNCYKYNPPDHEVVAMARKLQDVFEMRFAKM
# T7 sequence (Q15059 306-415 L345A): as the sequence (Q15059 306-415 limits assumed) above, with L40A counted along it
# T3 sequence (Q15059 34-140 limits assumed): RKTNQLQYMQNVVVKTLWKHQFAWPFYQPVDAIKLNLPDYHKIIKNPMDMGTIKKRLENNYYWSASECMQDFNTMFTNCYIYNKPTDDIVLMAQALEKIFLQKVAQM
Compound,ΔTm Brd2(1) (Brd2(1) [1]) [K],ΔTm Brd2(2) (Brd2(2) [2]) [K],ΔTm Brd3(1) (Brd3(1)) [K],ΔTm Brd3(2) (Brd3(2)) [K],ΔTm Brdt(1) (Brdt(1)) [K],ΔTm Brdt(2) (Brdt(2)) [K],ΔTm Brd3(2)* (L344A) (brd3(2)L344A) [K],ΔTm Brdt(2)* (L306A) (brdt(2)L306A) [K],ΔTm Brd3(1)* (L070A) (Brd3(1)* (L070A)) [K],Kd (Brd2(1) [3]) [nM],ΔH Brd2(1) (Brd2(1) [3]) [kcal/mol],ΔH Brd2(2) (Brd2(2) [4]) [kcal/mol],Kd (Brd2(2) [4]),Kd (Brd2(1)*(Leu110-Ala)) [nM],ΔH Brd2(1)* (Leu110-Ala) (Brd2(1)*(Leu110-Ala)) [cal/mol],ΔH Brd2(2)* (Leu383-Ala) (Brd2(2)*(Leu383-Ala)) [kcal/mol],Kd (Brd2(2)*(Leu383-Ala)),further results
"COC(=O)[C@H](C)[C@@H]1N=C(c2ccc(Cl)cc2)c2cc(OC)ccc2-n2c(C)nnc21 (racemic) [Compound 7, (+−)-methyl (R)-2-((S)-6-(4-chlorophenyl)-8-methoxy-1-methyl-4H-benzo[f][1,2,4]triazolo[4,3-a][1,4]diazepin-4-yl)propanoate]",3.2 ± 0.2,5.6 ± 0.1,5.9 ± 0.2,6.7 ± 1.0,5.3 ± 0.3,3.7 ± 0.3,15.6 ± 0.4,7.9 ± 0.2,10.8 ± 0.3,1470,-8.653 ± 0.1357,-5.36 ± 0.117,300 nM and 298 nM,17,−16780 ± 161.4,-12.61 ± 0.08606,22 nM and 22.3 nM,Thermal stabilisation brd2(1) (Brd2(1) [1]): 3.2 ± 0.2 °C; Thermal stabilisation brd2(1) (Brd2(1) [1]; listed as compound 7): 3.2 °C; Thermal stabilisation brd2(2) (Brd2(2) [2]): 5.6 ± 0.1 °C; Thermal stabilisation brd2(2) (Brd2(2) [2]; listed as compound 7): 5.6 °C
"CC[C@@H](C(=O)OC)[C@@H]1N=C(c2ccc(Cl)cc2)c2cc(OC)ccc2-n2c(C)nnc21 (racemic) [Compound 11, (+−)-methyl (R)-2-((S)-6-(4-chlorophenyl)-8-methoxy-1-methyl-4H-benzo[f][1,2,4]triazolo[4,3-a][1,4]diazepin-4-yl)butanoate]",1.2 ± 0.2,1.6 ± 0.1,2.2 ± 0.1,2.6 ± 0.7,1.5 ± 0.4,1.3 ± 0.3,13.4 ± 0.6,6.7 ± 0.4,10.4 ± 0.3,1780 ± 2000,-2.957 ± 0.2144,-3.601 ± 0.0852,2200 ± 400 nM,42.7 ± 7.8,−16220 ± 130.9,-10.71 ± 0.1028,21.7 ± 5.6 nM,Selectivity factor Kd WT/Kd Leu/Ala (Brd2(1)*(Leu110-Ala); brd2(1)L110A vs WT brd2(1)): 123; Selectivity factor Kd WT/Kd Leu/Ala (Brd2(1)*(Leu110-Ala); brd2(1)L110A vs WT brd2(2)): 236; Selectivity factor Kd WT/Kd Leu/Ala (Brd2(1)*(Leu110-Ala); brd2(1)L110A vs WT brd3(1)): 96; Selectivity factor Kd WT/Kd Leu/Ala (Brd2(1)*(Leu110-Ala); brd2(1)L110A vs WT brd3(2)): 101; Selectivity factor Kd WT/Kd Leu/Ala (Brd2(1)*(Leu110-Ala); brd2(1)L110A vs WT brd4(1)): 174; Selectivity factor Kd WT/Kd Leu/Ala (Brd2(1)*(Leu110-Ala); brd2(1)L110A vs WT brd4(2)): 138; Selectivity factor Kd WT/Kd Leu/Ala (Brd2(1)*(Leu110-Ala); brd2(1)L110A vs WT brdt(1)): 117; Selectivity factor Kd WT/Kd Leu/Ala (Brd2(1)*(Leu110-Ala); brd2(1)L110A vs WT brdt(2)): 167; Selectivity against all other bromodomains (Brd2(1)*(Leu110-Ala); mutated Brd2(1) vs all other (wild type) bromodomains): ≥ 96 fold; Selectivity factor Kd WT/Kd Leu/Ala (Brd2(2)*(Leu383-Ala); brd2(2)L383A vs WT brd2(1)): 105; Selectivity factor Kd WT/Kd Leu/Ala (Brd2(2)*(Leu383-Ala); brd2(2)L383A vs WT brd2(2)): 203; Selectivity factor Kd WT/Kd Leu/Ala (Brd2(2)*(Leu383-Ala); brd2(2)L383A vs WT brd3(1)): 82; Selectivity factor Kd WT/Kd Leu/Ala (Brd2(2)*(Leu383-Ala); brd2(2)L383A vs WT brd3(2)): 87; Selectivity factor Kd WT/Kd Leu/Ala (Brd2(2)*(Leu383-Ala); brd2(2)L383A vs WT brd4(1)): 150; Selectivity factor Kd WT/Kd Leu/Ala (Brd2(2)*(Leu383-Ala); brd2(2)L383A vs WT brd4(2)): 118; Selectivity factor Kd WT/Kd Leu/Ala (Brd2(2)*(Leu383-Ala); brd2(2)L383A vs WT brdt(1)): 101; Selectivity factor Kd WT/Kd Leu/Ala (Brd2(2)*(Leu383-Ala); brd2(2)L383A vs WT brdt(2)): 144
